Test results reported in PMC7248693, “Synthesis and Biological Evaluation of 2-Substituted Benzyl-/Phenylethylamino-4-amino-5-aroylthiazoles as Apoptosis-Inducing Anticancer Agents” (Molecules, 2020).

Assays:
U-937 = test: Antiproliferative activity, MTT assay, U-937 cells; format: cell-based, human; settings: for IC50: Homo sapiens, U-937, 72 h, MTT, mean ± SE, at least three independent experiments
Source text: (§1) In Table 1, we summarize the antiproliferative activity of the 15 novel 2-arylalkylamino-4-amino-5-(3′,4′,5′-trimethoxybenzoyl)thiazole derivatives 8a–o against human leukemia (U-937) and melanoma (SK-MEL-1) tumor cells lines.
(§2) Human U-937 and SK-MEL-1 cell lines were from the German Collection of Microorganisms and Cell Cultures (Braunschweig, Germany; DSMZ No: ACC 5 and ACC 303, respectively). The U-937 is a myeloid leukemia cell line isolated from a histiocytic lymphoma. SK-MEL-1 is a melanoma cell line. Cells were cultured in suspension in RPMI 1640 medium supplemented with 10% (v/v) fetal bovine serum and antibiotics (100 μg mL^−1 streptomycin and 100 U mL^−1 penicillin), at 37 °C in a humidified atmosphere containing 5% CO2. The trypan blue exclusion method was used for counting the cells by a hemocytometer, and cell viability was always greater than 95% in all experiments. Compounds were dissolved in DMSO, and further dilutions were made in culture medium just before use. […] The effects on cell viability of synthetic compounds were determined using a colorimetric assay with the reduction of 3-(4,5-dimethyl-2-thiazolyl-)-2,5-diphenyl-2H-tetrazolium bromide (MTT) as previously described. Briefly, 5 × 10^3 cells were seeded in 96-well microculture plates with increasing concentrations of compounds for 72 h. Then, MTT (0.5 mg mL^−1) was added and incubated for 4 h, and the reaction was stopped with 20% sodium dodecyl sulfate. A570 was used as a measure of cell viability. Concentrations inducing a 50% inhibition of cell growth were determined graphically by nonlinear regression using the curve-fitting algorithm of GraphPad Prism 4.0 (GraphPad Inc La Jolla, CA, USA).

SK-MEL-1 = test: Antiproliferative activity, MTT assay, SK-MEL-1 cells; format: cell-based, human; settings: Homo sapiens, SK-MEL-1; 72 h, MTT; mean ± SE, at least three independent experiments
Source text: as §1, §2

[1] = Cytotoxicity against peripheral blood lymphocytes, MTT assay; format: cell-based; settings: human, peripheral blood lymphocytes (PBL) from healthy donors, read-out: IC50 cytotoxic activity against normal cells (PBL)
Procedure: In order to investigate the selective antiproliferative activity of the new synthesized compounds, we tested representative derivatives 8f and 8k against peripheral blood lymphocytes (PBL) isolated from healthy donors.
PBLs from healthy donors were obtained by separation on Lymphoprep (Fresenius KABI Norge AS, Halden, Norway) gradient. After extensive washing, cells were resuspended (1.0 × 10^6 cells/mL) in RPMI-1640 with 10% fetal bovine serum and incubated overnight in a 96-well tissue culture microtiter plate. Varying compound concentrations were added to the cells, and the MTT assay was used to assess viability after a 48 h treatment.

Bovine brain tubulin = test: Inhibition of tubulin polymerization (turbidimetric assembly); format: biochemical
Procedure: Bovine brain tubulin was purified as described previously. To evaluate the effect of the compounds on tubulin assembly in vitro [31], varying concentrations were preincubated with 10 μM tubulin in glutamate buffer at 30 °C and then cooled to 0 °C. After addition of GTP, the mixtures were transferred to 0 °C cuvettes in a recording spectrophotometer and warmed to 30 °C, and the assembly of tubulin was observed turbidimetrically. The IC50 was defined as the compound concentration that inhibited the extent of assembly by 50% after a 20 min incubation.

CDK4/Cyclin D1 = target: T1, CDK4/Cyclin D1 (Homo sapiens, UniProt P11802); test: In vitro CDK inhibition assay (ADP-Glo), CDK4; format: biochemical; settings: single concentration of 10 μM; range over CDK4, CDK6, CDK9 and 8f, 8k; read-out: enzyme inhibition CDK4
T1 construct: purchased ProQinase
T1 sequence (P11802 whole entry): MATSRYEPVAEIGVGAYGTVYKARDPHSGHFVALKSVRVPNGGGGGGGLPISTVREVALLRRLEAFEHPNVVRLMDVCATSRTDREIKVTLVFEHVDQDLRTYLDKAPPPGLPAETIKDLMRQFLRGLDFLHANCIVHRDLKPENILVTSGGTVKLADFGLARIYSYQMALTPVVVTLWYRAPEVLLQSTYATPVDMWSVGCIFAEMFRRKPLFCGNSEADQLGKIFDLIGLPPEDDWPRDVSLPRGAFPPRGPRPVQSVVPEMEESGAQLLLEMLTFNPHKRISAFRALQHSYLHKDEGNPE
T1 sequence (P24385 whole entry partner): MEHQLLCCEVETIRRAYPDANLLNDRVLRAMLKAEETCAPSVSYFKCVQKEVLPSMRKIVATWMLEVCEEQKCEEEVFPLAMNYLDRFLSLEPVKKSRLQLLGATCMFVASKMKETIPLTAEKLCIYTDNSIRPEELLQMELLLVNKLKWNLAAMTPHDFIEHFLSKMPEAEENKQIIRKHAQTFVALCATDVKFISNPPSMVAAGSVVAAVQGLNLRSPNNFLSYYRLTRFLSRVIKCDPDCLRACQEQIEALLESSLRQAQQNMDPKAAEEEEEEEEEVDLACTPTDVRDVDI
Procedure: (§3) The CDK4, 6 and 9 inhibitory activies were determined using the CDK4/Cyclin D1 Assay kit (ProQinase, Freiburg im Breisgau, Germany), CDK6/Cyclin D3 Kinase Enzyme System (Promega, Milan, Italy) and CDK9/CyclinK Kinase Enzyme System (Promega) by ADP-Glo CDK assays following the manufacturer’s instructions. The assay was performed with the test compounds at 10 μM.

CDK6/Cyclin D3 = target: T2, CDK6/Cyclin D3 (Homo sapiens, UniProt Q00534); test: In vitro CDK inhibition assay (ADP-Glo), CDK6; format: biochemical; settings: single concentration of 10 μM; range over CDK4, CDK6, CDK9 and 8f, 8k; read-out: enzyme inhibition CDK6
T2 construct: purchased Promega
T2 sequence (Q00534 whole entry): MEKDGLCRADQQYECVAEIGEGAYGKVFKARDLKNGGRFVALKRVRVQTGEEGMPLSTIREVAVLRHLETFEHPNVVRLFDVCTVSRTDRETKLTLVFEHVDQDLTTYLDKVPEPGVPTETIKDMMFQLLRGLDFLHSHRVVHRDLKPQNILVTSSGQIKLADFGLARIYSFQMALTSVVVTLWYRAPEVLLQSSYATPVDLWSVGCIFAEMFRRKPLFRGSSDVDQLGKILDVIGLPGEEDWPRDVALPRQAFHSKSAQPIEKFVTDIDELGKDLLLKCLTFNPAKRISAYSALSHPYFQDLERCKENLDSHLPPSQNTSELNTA
T2 sequence (P30281 whole entry partner): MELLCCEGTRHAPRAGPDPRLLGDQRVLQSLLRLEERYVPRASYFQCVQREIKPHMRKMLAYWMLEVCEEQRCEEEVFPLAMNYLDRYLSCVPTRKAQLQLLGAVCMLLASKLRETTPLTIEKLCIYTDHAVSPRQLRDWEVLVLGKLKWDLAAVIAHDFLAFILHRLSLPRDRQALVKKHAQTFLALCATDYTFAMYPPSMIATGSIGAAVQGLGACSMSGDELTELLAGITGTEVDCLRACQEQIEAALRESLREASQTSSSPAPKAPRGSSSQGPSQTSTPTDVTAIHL
Procedure: as §3

CDK9/CyclinK = target: T3, CDK9/CyclinK (Homo sapiens, UniProt P50750); test: In vitro CDK inhibition assay (ADP-Glo), CDK9; format: biochemical; settings: single concentration of 10 μM; range over CDK4, CDK6, CDK9 and 8f, 8k; read-out: enzyme inhibition CDK9
T3 construct: purchased Promega
T3 sequence (P50750 whole entry): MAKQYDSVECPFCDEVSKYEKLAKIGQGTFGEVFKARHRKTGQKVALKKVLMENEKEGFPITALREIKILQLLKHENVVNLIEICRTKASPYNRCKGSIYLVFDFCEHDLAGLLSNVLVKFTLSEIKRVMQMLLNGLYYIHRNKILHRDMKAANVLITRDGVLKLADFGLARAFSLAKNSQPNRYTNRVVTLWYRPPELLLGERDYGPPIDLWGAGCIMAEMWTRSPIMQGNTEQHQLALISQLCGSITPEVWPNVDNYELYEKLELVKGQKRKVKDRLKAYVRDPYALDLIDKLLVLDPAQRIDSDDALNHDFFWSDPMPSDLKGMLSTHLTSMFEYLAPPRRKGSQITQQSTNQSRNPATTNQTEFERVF
T3 sequence (O75909 whole entry partner): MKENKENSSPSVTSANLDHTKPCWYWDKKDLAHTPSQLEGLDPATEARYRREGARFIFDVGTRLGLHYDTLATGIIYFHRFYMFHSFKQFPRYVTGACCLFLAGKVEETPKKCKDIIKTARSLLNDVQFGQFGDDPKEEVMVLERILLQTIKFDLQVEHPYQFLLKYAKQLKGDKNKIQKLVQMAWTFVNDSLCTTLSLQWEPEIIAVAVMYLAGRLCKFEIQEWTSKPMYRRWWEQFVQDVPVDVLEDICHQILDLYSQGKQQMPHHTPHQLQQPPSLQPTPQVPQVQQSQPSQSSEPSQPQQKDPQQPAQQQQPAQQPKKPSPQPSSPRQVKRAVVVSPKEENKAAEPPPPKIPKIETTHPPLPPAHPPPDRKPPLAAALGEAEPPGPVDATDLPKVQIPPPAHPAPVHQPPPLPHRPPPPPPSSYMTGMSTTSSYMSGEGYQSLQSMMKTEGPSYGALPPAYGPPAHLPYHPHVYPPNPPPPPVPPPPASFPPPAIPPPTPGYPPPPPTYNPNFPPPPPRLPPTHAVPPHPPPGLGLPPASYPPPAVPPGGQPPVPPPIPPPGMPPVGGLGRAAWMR
Procedure: as §3

U-937 leukemia cells = test: Cell cycle analysis by flow cytometry (propidium iodide); format: cell-based, human
Procedure: Induction of apoptosis in cancer cells is recognized as an efficient strategy for cancer chemotherapy. For this reason, it was decided to determine whether these compounds display their cytotoxic action through alterations in cell cycle progression and induction of cell apotosis. To this end, the effects at different time periods (6, 12 and 24 h) with different concentrations (10 and 30 μM) of 8f and 8k on cell cycle progression on U-937 leukemia cells were investigated by flow cytometry analyses.
Flow cytometric analysis of propidium iodide-stained cells was performed as previously described. Briefly, U-937 cells were treated with the indicated compounds at the specified concentrations in RPMI 1640 medium. After treatments, cells were centrifuged for 10 min at 500× g, washed with cold phosphate-buffered saline (PBS), fixed with ice-cold 75% ethanol and stored at −20 °C for at least 1 h. Samples were then centrifuged at 500 × g for 10 min at 4 °C, washed with PBS, resuspended in 200 μL of PBS containing 100 μg mL^−1 RNase A and 50 μg mL^−1 propidium iodide and incubated for 1 h in the dark. The DNA content was analyzed by flow cytometry with a Becton-Dickinson FACSVerse^TM cytometer (BD Biosciences, San Jose, CA, USA). The percentage of cells in each phase of the cell cycle was determined for a minimum of 10^4 cells, and histograms were analyzed with Flowing 2.5.0 software.

CDK9 = tested on: CDK9; set-up: method as in PMID 30454645; settings: cited from earlier work
tubulin = settings: previously reported series with general structure 2; reference not printed at the place; read-out: IC50 tubulin assembly assay; cited from earlier work
[2] = tested on: panel of four different cancer cell lines; set-up: method as in earlier work; settings: read-out: IC50 against a panel of four different cancer cell lines; cited from earlier work

SMILES: COc1ccc(CCNc2nc(N)c(C(=O)c3cc(OC)c(OC)c(OC)c3)s2)cc1 [8k, (4-Amino-2-((4-methoxyphenethyl)amino)thiazol-5-yl)(3,4,5-trimethoxyphenyl)methanone]
- IC50 (U-937): 5.7 ± 1.3 µM
- increase of antiproliferative activity relative to 8j (U-937; cell line not specified (U-937 and SK-MEL-1)): 3-4 fold
- IC50 (SK-MEL-1): 8 ± 4.3 µM
- IC50 at 48 h [1]: > 100 µM
- IC50 (Bovine brain tubulin; 10 μM tubulin, 20 min incubation at 30 °C): > 20 µM
- inhibition of tubulin polymerization (Bovine brain tubulin; at high concentrations (up to 20 μM)): did not show any noteworthy inhibition
- inhibition at 10 µM (CDK4/Cyclin D1): 2 to 8%
- inhibition at 10 µM (CDK6/Cyclin D3): 2 to 8%
- inhibition at 10 µM (CDK9/CyclinK): 2 to 8%
- % G1 (U-937 leukemia cells; 6 h, 10 µM): 38.7 ± 0.3 %
- % G2-M (U-937 leukemia cells; 6 h, 10 µM): 25.3 ± 0.2 %
- % S (U-937 leukemia cells; 6 h, 10 µM): 30.7 ± 0.1 %
- % Sub-G1 (U-937 leukemia cells; 6 h, 10 µM): 3.7 ± 0.4%
- % G1 (U-937 leukemia cells; 6 h, 30 µM): 35.6 ± 0.5 %
- % G2-M (U-937 leukemia cells; 6 h, 30 µM): 23.1 ± 0.4%
- % S (U-937 leukemia cells; 6 h, 30 µM): 32.0 ± 0.5 %
- % Sub-G1 (U-937 leukemia cells; 6 h, 30 µM): 7.6 ± 0.5 %
- % G1 (U-937 leukemia cells; 12 h, 10 µM): 41.9 ± 0.1 %
- % G2-M (U-937 leukemia cells; 12 h, 10 µM): 23.7 ± 1.4%
- % S (U-937 leukemia cells; 12 h, 10 µM): 20.2 ± 0.4%
- % Sub-G1 (U-937 leukemia cells; 12 h, 10 µM): 12.1 ± 0.8 %
- % G1 (U-937 leukemia cells; 12 h, 30 µM): 17.3 ± 0.4 %
- % G2-M (U-937 leukemia cells; 12 h, 30 µM): 29.9 ± 1.7 %
- % S (U-937 leukemia cells; 12 h, 30 µM): 26.8 ± 0.2 %
- % Sub-G1 (U-937 leukemia cells; 12 h, 30 µM): 24.3 ± 1.5 %
- % G1 (U-937 leukemia cells; 24 h, 10 µM): 39.4 ± 0.2 %
- % G2-M (U-937 leukemia cells; 24 h, 10 µM): 17.2 ± 0.6%
- % S (U-937 leukemia cells; 24 h, 10 µM): 28.4 ± 1.1 %
- % Sub-G1 (U-937 leukemia cells; 24 h, 10 µM): 12.7 ± 0.1 %
- % G1 (U-937 leukemia cells; 24 h, 30 µM): 11.2 ± 0.9 %
- % G2-M (U-937 leukemia cells; 24 h, 30 µM): 23.8 ± 2.9 %
- % S (U-937 leukemia cells; 24 h, 30 µM): 11.5 ± 0.4 %
- % Sub-G1 (U-937 leukemia cells; 24 h, 30 µM): 51.5 ± 4.2 %
- increase of apoptotic cells with respect to control cells (U-937 leukemia cells; 24 h, 30 µM): ~15 fold

SMILES: Nc1nc(N[C@H]2CC3CCC2C3)sc1C(=O)c1ccccc1[N+](=O)[O-] (stereo partly drawn) [compound 7, 2-(exo-2′-aminonorbornane)-4-amino-5-(2′-nitrobenzoyl)-thiazole]
- selectivity for CDK9 than for other CDKs (CDK9): at least 22 fold

SMILES: COc1ccc(/C=C\c2cc(OC)c(OC)c(OC)c2)cc1O [CA-4, combretastatin A-4, reference compound]
- IC50 (U-937): 0.019 ± 0.012 µM
- IC50 (SK-MEL-1): 3.1 ± 2.9 µM
- IC50 (tubulin): 1.4 µM

SMILES: COc1cc(C(=O)c2sc(Nc3ccc(C)cc3)nc2N)cc(OC)c1OC [2b]
- IC50 (tubulin): 0.72 µM

SMILES: COc1cc(C(=O)c2sc(N(C)Cc3ccccc3)nc2N)cc(OC)c1OC [3a]
- IC50 [2]: < 200 µM
